The record followed here is patent US9476053B2, “Methods and compositions for inhibition of immune responses and autoimmunity” (Dynavax Technologies Corporation, priority 2007, dated 2016).

The target in data set [1] is T1, TLR9 (Mus musculus, UniProt Q9EQU3).
T1 construct: The dispersed splenocytes were pelleted by centrifugation, then resuspended in fresh medium; endogenous in cells; host or cells: primary splenocytes of BALB/c mice
T1 sequence (Q9EQU3 26-1032): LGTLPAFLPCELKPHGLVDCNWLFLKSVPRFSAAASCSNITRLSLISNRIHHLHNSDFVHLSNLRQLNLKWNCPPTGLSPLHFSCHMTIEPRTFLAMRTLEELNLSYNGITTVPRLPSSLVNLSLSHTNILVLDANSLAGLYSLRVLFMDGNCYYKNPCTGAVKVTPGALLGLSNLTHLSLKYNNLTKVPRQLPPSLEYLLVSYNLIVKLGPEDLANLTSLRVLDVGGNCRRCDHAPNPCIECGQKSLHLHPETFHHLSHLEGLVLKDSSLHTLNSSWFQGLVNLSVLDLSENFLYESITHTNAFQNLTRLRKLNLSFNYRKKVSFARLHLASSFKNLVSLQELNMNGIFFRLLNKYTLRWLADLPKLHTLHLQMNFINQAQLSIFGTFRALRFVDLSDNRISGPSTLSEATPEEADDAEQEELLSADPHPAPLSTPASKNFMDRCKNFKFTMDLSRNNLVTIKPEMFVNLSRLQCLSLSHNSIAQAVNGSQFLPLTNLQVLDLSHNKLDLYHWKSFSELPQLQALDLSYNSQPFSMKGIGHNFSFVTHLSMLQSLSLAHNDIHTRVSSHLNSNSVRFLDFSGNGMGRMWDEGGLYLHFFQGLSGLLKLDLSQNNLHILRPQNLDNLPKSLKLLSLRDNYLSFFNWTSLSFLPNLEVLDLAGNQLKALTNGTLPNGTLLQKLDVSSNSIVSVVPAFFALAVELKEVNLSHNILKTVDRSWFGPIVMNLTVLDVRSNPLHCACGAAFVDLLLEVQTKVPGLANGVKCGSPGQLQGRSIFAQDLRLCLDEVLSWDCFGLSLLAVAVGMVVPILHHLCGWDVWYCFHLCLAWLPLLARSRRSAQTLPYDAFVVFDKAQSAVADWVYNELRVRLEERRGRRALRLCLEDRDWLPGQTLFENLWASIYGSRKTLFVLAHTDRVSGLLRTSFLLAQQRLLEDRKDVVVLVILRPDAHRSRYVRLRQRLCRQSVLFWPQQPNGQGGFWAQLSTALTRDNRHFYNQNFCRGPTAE
In words: Mouse splenocytes stimulated with 1018 ISS (TLR9 ligand), IL-6 by immunoassay. The data set is classed as cell-based. The following applies: TLR9 stimulation (1018 ISS). On the procedure:
(§1) Modified and unmodified immunoregulatory polynucleotides (IRPs) (i.e., polynucleotides containing at least one modified or unmodified IRS) or control samples were assayed for immunoregulatory (IR) activity of innate immune responses on human and mouse cells.
(§2) For mouse cell assays, spleens from 6-12 week-old BALB/c mice spleen were harvested and mechanically dispersed by forcing the digested fragments through metal screens. The dispersed splenocytes were pelleted by centrifugation, then resuspended in fresh medium (RPMI 1640 with 10% fetal calf serum, plus 50 units/mL penicillin, 50 μg/mL streptomycin, 2 mM glutamine, and 0.05 mM β-mercaptoethanol). In a dose-dependent manner, the cells were then stimulated with […] of 1018 ISS (TLR9 ligand; 5′-[…]-3′ (SEQ ID NO:122)) or 1 μM of R848 (TLR7 ligand; a small molecule, an imidazoquinoline also called resiquimod) either alone or in the presence of the tested IRPs. At 48 hours, supernatants were collected and cytokine levels, IL-6, were measured using immunoassays. […]

Another data set has as its target T2, TLR7 (Mus musculus, UniProt P58681).
T2 construct: The dispersed splenocytes were pelleted by centrifugation, then resuspended in fresh medium; endogenous in cells; host or cells: primary splenocytes of BALB/c mice
T2 sequence (P58681 27-1050): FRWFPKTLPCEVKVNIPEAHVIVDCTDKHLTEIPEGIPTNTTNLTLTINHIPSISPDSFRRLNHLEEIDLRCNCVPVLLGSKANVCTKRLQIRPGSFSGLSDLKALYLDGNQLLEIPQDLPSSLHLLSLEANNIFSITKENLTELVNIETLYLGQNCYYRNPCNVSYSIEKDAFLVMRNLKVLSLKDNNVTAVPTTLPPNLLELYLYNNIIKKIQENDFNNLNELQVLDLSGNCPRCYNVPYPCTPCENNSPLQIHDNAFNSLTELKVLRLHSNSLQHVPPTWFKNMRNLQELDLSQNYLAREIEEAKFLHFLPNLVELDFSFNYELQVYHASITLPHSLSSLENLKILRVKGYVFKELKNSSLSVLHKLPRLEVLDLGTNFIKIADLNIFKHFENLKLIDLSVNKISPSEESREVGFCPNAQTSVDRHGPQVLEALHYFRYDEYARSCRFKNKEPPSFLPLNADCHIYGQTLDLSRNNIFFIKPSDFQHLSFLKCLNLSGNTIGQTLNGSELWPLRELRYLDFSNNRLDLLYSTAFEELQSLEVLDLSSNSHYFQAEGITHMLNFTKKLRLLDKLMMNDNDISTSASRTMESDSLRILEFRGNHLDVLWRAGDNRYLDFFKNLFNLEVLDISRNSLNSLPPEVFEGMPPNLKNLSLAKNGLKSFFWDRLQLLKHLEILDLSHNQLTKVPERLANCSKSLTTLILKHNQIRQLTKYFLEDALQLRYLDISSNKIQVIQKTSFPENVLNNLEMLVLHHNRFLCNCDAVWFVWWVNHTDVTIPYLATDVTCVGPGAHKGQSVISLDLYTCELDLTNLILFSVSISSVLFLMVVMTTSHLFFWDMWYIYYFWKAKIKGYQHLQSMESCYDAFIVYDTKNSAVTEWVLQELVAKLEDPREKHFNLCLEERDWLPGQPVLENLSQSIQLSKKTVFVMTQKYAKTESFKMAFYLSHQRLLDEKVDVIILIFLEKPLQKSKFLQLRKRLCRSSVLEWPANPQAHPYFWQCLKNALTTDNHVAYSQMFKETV
Nature of the data set: Mouse splenocytes stimulated with R848 (TLR7 ligand), IL-6 by immunoassay. It counts as cell-based. Here is the method: as §1, §2

The next data set concerns PDC. Nature of the data set: In vivo cell survival after escalating dose of Dexthametasone in 129 mice. The arrangement: species or system mouse. The following applies: 0.5 mg-4 mg, 16 hours, spleen and blood. Here is the method: To investigate whether PDC are sensitive to glucorticoid induced death in vivo, 129 mice were treated with escalating dose of Dexthametasone (0.5 mg-4 mg) and after 16 hours spleen and blood was harvest. Cell survival was measured by flow cytometry. The number of viable cells was evaluated by flow cytometry by comparing to a fixed amount of microbeads that was added in equal amount in all samples prior to the measure on the flow cytometry.
Specific markers were used to identify specific subsets. Cells were identified to be PDC by the surface presence of B220, CD11c, and PDCA1 marker. Myeloid dendritic cells were identified as to be CD11c positive and B220 negative. B-cells were identified as B220 positive cells and CD11c negative. Monocytes were identified as CD11b positive. Cell viability using cells from spleen tissue under increasing Dexthametason dose was evaluated and results are shown in FIG. 32. Similar results were obtained using blood (data not shown). PDC were sensitive to glucorticoid induced death in vivo.

The target in data set [2] is T3, TLR9 (Homo sapiens, UniProt Q9NR96).
T3 sequence (Q9NR96 26-1032): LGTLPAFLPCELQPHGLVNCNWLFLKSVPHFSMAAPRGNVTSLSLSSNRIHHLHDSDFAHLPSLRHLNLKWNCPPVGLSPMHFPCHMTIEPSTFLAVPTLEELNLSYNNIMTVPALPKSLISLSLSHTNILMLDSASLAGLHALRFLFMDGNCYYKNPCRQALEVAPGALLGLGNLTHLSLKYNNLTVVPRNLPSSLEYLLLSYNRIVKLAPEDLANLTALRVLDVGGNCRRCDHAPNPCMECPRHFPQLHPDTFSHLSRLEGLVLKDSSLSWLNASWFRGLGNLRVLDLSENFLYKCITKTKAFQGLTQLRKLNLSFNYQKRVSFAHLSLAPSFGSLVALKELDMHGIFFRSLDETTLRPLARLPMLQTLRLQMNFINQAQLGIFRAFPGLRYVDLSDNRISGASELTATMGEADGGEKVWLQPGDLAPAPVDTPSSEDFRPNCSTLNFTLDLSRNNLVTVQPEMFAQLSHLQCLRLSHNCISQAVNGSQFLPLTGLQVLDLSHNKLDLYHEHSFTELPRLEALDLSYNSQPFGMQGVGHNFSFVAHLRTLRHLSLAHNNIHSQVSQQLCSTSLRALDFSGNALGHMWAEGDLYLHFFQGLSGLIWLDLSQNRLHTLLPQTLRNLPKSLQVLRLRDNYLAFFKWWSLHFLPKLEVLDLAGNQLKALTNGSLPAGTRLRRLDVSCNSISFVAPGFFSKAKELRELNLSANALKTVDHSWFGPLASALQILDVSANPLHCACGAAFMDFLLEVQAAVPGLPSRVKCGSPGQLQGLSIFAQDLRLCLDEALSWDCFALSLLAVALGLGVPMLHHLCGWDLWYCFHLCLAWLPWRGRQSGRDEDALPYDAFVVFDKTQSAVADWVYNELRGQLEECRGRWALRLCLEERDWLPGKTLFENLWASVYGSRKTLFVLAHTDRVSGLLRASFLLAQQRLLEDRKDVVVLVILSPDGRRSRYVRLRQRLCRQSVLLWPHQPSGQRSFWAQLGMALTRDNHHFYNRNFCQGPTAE
In words: Human PDC activated with CpG-C ISS C274, IFN-α production, IRS coupled to Ficoll 400. It counts as cell-based. The arrangement: innate immune responses on human plasmacytoid dendritic cells (PDCs); endogenous in cells; host or cells: human plasmacytoid dendritic cells (PDCs). The following applies: compared with IRS not coupled. From the text: To further investigate whether it is possible to increase IRS activity with respect to inhibition of IFN-α production by aggregating IRS molecule onto a higher order molecule, we have generated molecules that are composed by IRS oligonucleotides that are covalently associated to Ficoll 400, a neutral, highly branched, hydrophilic polymer of sucrose. The nature of this sugar allowed us to link between 10 to over 100 IRS oligos per Ficoll molecule.
The conjugation of oligonucleotides to ficoll as practiced currently consists of four reaction steps: (I) The commercially obtained ficoll is carboxymethylated by reaction of ficoll with chloroacetic acid in base. (II) After neutralization and dialysis, product is reacted with ethylene diamine in the presence of the 1-ethyl-3-[3-(dimethylaminopropyl]carbodiimide) EDC to give product (III). After dialysis Product (III) is reacted with (sulfosuccinimidal 4-[N-maleimidyl]-cyclohexane-1-carboxylate) SMCC to give the ficoll-maleimide product (IV). The thiol-reactive species (IV) is then reacted with the oligonucleotide thiol to give the final product (V), a multioligonucleotide conjugate of ficoll.
Thus, it is possible to increase IRS activity with respect to inhibition of IFN-α production by aggregating IRS molecule onto a higher order molecule.

Take “5′-UGCUCCUGGAGGGG UUGU-3′ (DNA TGCTCCTGGAGGGGTTGT; all LNA, backbone and methylation of C not given here) [SEQ ID NO:161]”: the “IL-6 levels compared to unmodified SEQ ID NO:123” value in the data set with TLR9 [1] and with TLR7 was “failed to result in a significant decreased” in each case.

As to `C[C@@H]1C[C@H]2[C@@H]3CCC4=CC(=O)C=C[C@]4(C)[C@@]3(F)[C@@H](O)C[C@]2(C)[C@@]1(O)C(=O)CO` [Dexthametasone], in the data set on PDC, the “PDC sensitivity to glucorticoid induced death in vivo” value is “sensitive”.

For the molecule “IRS-Ficoll 400: 5′-TGCTCCTGGAGGGGTTGT-3′ (SEQ ID NO:123) coupled to Ficoll 400 (coupled to Ficoll 400, backbone chemistry not given here)”, the “activity for blocking IFN-α production by PDC” value with TLR9 [2] is recorded as “much increased activity”.
